Consider 3 molecules from patent US20210077382A1, “COMPOSITIONS, DEVICES, AND METHODS FOR THE TREATMENT OF OPIOID-RECEPTOR-MEDIATED CONDITIONS” (Opiant Phamaceuticals, Inc., priority 2016, published 2021).

Each structure is given as a SMILES string.

The conditions of data set [1]: same conditions as naltrexone; cited from earlier work.
For data set [2] the following is noted: reported to be as low as; Gonzalez and Brogden 1988; cited from earlier work.
Data set [3] is described as follows: Clinical pharmacokinetic crossover study of IN, IM and oral naltrexone; plasma naltrexone and 6β-naltrexol by LC-MS/MS. As to conditions: 4 mg IN; 5 minutes postdose. From the text: Study Goals. […] Secondary endpoints included adverse events (AEs), vital signs (heart rate, sitting blood pressure, and respiration rate), electrocardiogram (ECG), clinical laboratory changes and nasal irritation using the nasal irritation scale.
Study design. […] This was an in-patient open-label, crossover study involving approximately 14 healthy volunteers. […] Subjects stayed in the in-patient facility for 13 days to complete the entire study. Subjects were called 3 to 5 days after discharge to inquire concerning AEs and concomitant medications since discharge. Informed consent was obtained from all subjects, and all were screened for eligibility to participate in the study, including medical history, physical examination, clinical chemistry, coagulation markers, hematology, infectious disease serology, urinalysis, urine drug and alcohol toxicology screen, vital signs and ECG.
On days of study drug administration, a 12-lead ECG was performed approximately 1 hour prior to dosing and at approximately 1 and 4 hours post-dose. Vital signs were measured pre-dose and about 1 and 4 hours post-dose.
Study Drugs and Dosing. […] The IN (40 mg/mL) formulations were made by the staff pharmacist at Vince & Associates; the vehicle for the IN formulations was sterile water for injection. The IM formulation (2 mg/mL) was made by the staff pharmacist at Vince & Associates; the vehicle was sterile saline for injection.
Subjects stayed in the in-patient facility for 13 days to complete the entire study and were discharged 2 days after the fourth dose.
PK Assessments. […] Plasma was separated from whole blood and stored frozen at […] until assayed.
Analysis. […] Dose-adjusted values for AUCs and Cmax were calculated. The relative extent of IN and PO absorption (IN and PO versus IM) will be estimated from the dose-corrected AUCs.

A short description of data set [4]: Safety assessments (adverse events, vital signs, ECG, nasal irritation) in the clinical study. The format is in vivo, human. How it is done: On dosing days, the order of assessments was ECG, vital signs, then PK blood collection when scheduled at the same nominal times. The target time of the PK blood collection was considered the most critical and if the collection was more than ±1 minute from the scheduled time for the first 60 minutes of collections or more than ±5 minutes for the scheduled time points thereafter, this was considered a protocol deviation. ECG and vital signs were collected within the 10-minute period before the nominal time of blood collections. At screening, admission, and discharge, ECG, and vital signs were checked once per day. […] Clinical laboratory measurements were repeated after the last PK blood draw prior to clinic discharge. AEs were assessed by spontaneous reports by subjects, by examination of the nasal mucosa, by measuring vital signs, ECG, and clinical laboratory parameters.
Safety Assessments. […] ECG and vital signs were performed within the 10-minute period before the nominal time for post-dose blood collections. Adverse events (AEs) were recorded from the start of study drug administration until clinic discharge.

The conditions of data set [5]: intranasal formulation with […] Intravail; cited from earlier work.

For the molecule `C=C1CC[C@@]2(O)[C@H]3Cc4ccc(O)c5c4[C@@]2(CCN3CC2CC2)[C@H]1O5` [nalmefene, 17-cyclopropylmethyl-4,5α-epoxy-6-methylenemorphinan-3,14-diol], the “Change of AUC when an alkylsaccharide is added to the intranasal formulation” value in data set [1] is “do not have increased AUC”.

Turning to `O=C1CC[C@@]2(O)[C@H]3Cc4ccc(O)c5c4[C@@]2(CCN3CC2CC2)[C@H]1O5` [naltrexone, 17-(cyclopropylmethyl)-4,5a-epoxy-3,14-dihydroxymorphinan-6-one], the Oral bioavailability in data set [2] was 5%. The “Difference of mean naltrexone concentrations with and without Intravail” value in data set [3] is 8 fold. For the same molecule, in data set [4] (5 subjects of 14), the “Subjects with dizziness (most frequent AE regardless of severity or attribution)” value is recorded as 36%. Further, the “Subjects with AEs of the Nervous System Disorders SOC (most frequent AEs)” value in data set [4] (7 subjects of 14) was determined as 50%. Also, in data set [4] (all dosing periods), the “Severe AEs” value is listed as “No severe AEs were observed”. In addition, in data set [4] (dizziness after the first dose (4 mg IN), considered related to the study agent), the “Moderate AEs” value was “one”. Moreover, in data set [4] (hypertension, syncope, out-of-range pre-dose vital signs), the “Subjects discontinued from the study due to AEs” value is on record as “Three”. Moreover, in data set [4] (mild syncope after the Day 1 dose (4 mg IN)), the “Treatment-related unexpected AE” value is listed as “one”. For the same molecule, the “Subjects who experienced at least one AE” value in data set [4] (safety population, 10 of 14 subjects, any dosing period, any relationship to drug) amounted to 71%. Moreover, the “Subjects who experienced unexpected AEs” value in data set [4] (two UAEs considered unrelated to the study agent) is recorded as “Three”.

For `CNS(=O)(=O)Cc1ccc2[nH]cc(CCN(C)C)c2c1` [sumatriptan], in data set [5], the “Increase of maximum plasma concentration in comparison to Imitrex nasal spray” value is “almost four-fold”; the “Increase of total exposure (AUC)” value was 32%; the Tmax (as a rule, the time from dosing to the highest level) is 8 to 10 min.
